Experimental data as given in PubChem BioAssay (NCI).
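Following 48 hours of exposure in 96-well plates, responses at five concentrations were used to interpolate endpoints linearly. TGI marks complete inhibition of growth.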

How the values were obtained:
Assay in all cases: inhibition of tumour cell growth, NCI panel, 48 h
[1] = tested on: PC-3 prostate
[2] = tested on: NCI/ADR-RES ovarian
[3] = tested on: OVCAR-5 ovarian
[4] = tested on: SW-620 colon
[5] = tested on: COLO 205 colon
[6] = tested on: MCF7 breast
[7] = tested on: MDA-N
[8] = tested on: MDA-MB-231 breast
[9] = tested on: SNB-75 CNS
[10] = tested on: UO-31 renal
[11] = tested on: SK-MEL-5 melanoma
[12] = tested on: SR leukemia
[13] = tested on: HCT-15 colon
[14] = tested on: OVCAR-8 ovarian
[15] = tested on: OVCAR-4 ovarian
[16] = tested on: CAKI-1 renal
[17] = tested on: TK-10 renal
[18] = tested on: HL-60(TB) leukemia
[19] = tested on: NCI-H226 lung
[20] = tested on: HOP-62 NSCLC
[21] = tested on: MOLT-4 leukemia
[22] = tested on: K-562 leukemia
[23] = tested on: NCI-H522 lung
[24] = tested on: HT29 colon
[25] = tested on: T-47D breast
[26] = tested on: U251 CNS
[27] = tested on: HS 578T breast
[28] = tested on: RPMI-8226 leukemia
[29] = tested on: SF-268 CNS
[30] = tested on: NCI-H460 lung
[31] = tested on: SNB-19 CNS
[32] = tested on: OVCAR-3 ovarian
[33] = tested on: CCRF-CEM leukemia
[34] = tested on: A549 NSCLC
[35] = tested on: SF-295 CNS
[36] = tested on: RXF 393 renal
[37] = tested on: 786-0 renal
[38] = tested on: MALME-3M melanoma
[39] = tested on: SN12C renal
[40] = tested on: DU-145 prostate
[41] = tested on: SK-MEL-28 melanoma
[42] = tested on: SF-539 CNS
[43] = tested on: UACC-62 melanoma
[44] = tested on: KM12 colon
[45] = tested on: HOP-92 NSCLC
[46] = tested on: M14 melanoma
[47] = tested on: MDA-MB-435
[48] = tested on: LOX IMVI melanoma
[49] = tested on: SK-OV-3 ovarian
[50] = tested on: HCC-2998 colon
[51] = tested on: ACHN renal
[52] = tested on: HCT-116 colon
[53] = tested on: NCI-H23 lung
[54] = tested on: IGROV1 ovarian
[55] = tested on: UACC-257 melanoma
[56] = tested on: EKVX NSCLC
[57] = tested on: A498 renal
[58] = tested on: BT-549 breast
[59] = tested on: SK-MEL-2 melanoma

## CCCCCCCCCCCCCCCCCc1nc(Cl)nc(Cl)c1Cl
[1]
  TGI: > 100 µM
[2]
  TGI: > 100 µM
[3]
  TGI: > 100 µM
[4]
  TGI: > 100 µM
[5]
  TGI: > 100 µM
[6]
  TGI: > 100 µM
[7]
  TGI: > 100 µM
[8]
  TGI: > 100 µM
[9]
  TGI: > 100 µM
[10]
  TGI: > 100 µM
[11]
  TGI: 50.7 µM
[12]
  TGI: > 100 µM
[13]
  TGI: > 100 µM
[14]
  TGI: > 100 µM
[15]
  TGI: > 100 µM
[16]
  TGI: > 100 µM
[17]
  TGI: > 100 µM
[18]
  TGI: > 100 µM
[19]
  TGI: 34.6 µM
[20]
  TGI: > 100 µM
[21]
  TGI: > 100 µM
[22]
  TGI: > 100 µM
[23]
  TGI: > 100 µM
[24]
  TGI: > 100 µM
[25]
  TGI: > 100 µM
[26]
  TGI: > 100 µM
[27]
  TGI: > 100 µM
[28]
  TGI: > 100 µM
[29]
  TGI: > 100 µM
[30]
  TGI: > 100 µM
[31]
  TGI: > 100 µM
[32]
  TGI: > 100 µM
[33]
  TGI: > 100 µM
[34]
  TGI: > 100 µM
[35]
  TGI: > 100 µM
[36]
  TGI: > 100 µM
[37]
  TGI: > 100 µM
[38]
  TGI: > 100 µM
[39]
  TGI: > 100 µM
[40]
  TGI: > 100 µM
[41]
  TGI: > 100 µM
[42]
  TGI: > 100 µM
[43]
  TGI: > 100 µM
[44]
  TGI: > 100 µM
[45]
  TGI: > 100 µM
[46]
  TGI: > 100 µM
[47]
  TGI: > 100 µM
[48]
  TGI: > 100 µM
[49]
  TGI: > 100 µM
[50]
  TGI: > 100 µM
[51]
  TGI: > 100 µM
[52]
  TGI: > 100 µM
[53]
  TGI: > 100 µM
[54]
  TGI: > 100 µM

## CCOC(=O)c1ccc(N(CCOS(C)(=O)=O)CCOS(C)(=O)=O)cc1
[1]
  TGI: > 100 µM
[2]
  TGI: > 100 µM
[3]
  TGI: > 100 µM
[4]
  TGI: > 100 µM
[5]
  TGI: > 100 µM
[55]
  TGI: > 100 µM
[6]
  TGI: > 100 µM
[56]
  TGI: > 100 µM
[7]
  TGI: > 100 µM
[57]
  TGI: > 100 µM
[8]
  TGI: > 100 µM
[58]
  TGI: > 100 µM
[10]
  TGI: 39.3 µM
[11]
  TGI: > 100 µM
[13]
  TGI: > 100 µM
[14]
  TGI: > 100 µM
[15]
  TGI: > 100 µM
[16]
  TGI: 29.1 µM
[17]
  TGI: > 100 µM
[18]
  TGI: > 100 µM
[21]
  TGI: 48.1 µM
[22]
  TGI: > 100 µM
[23]
  TGI: 41.1 µM
[24]
  TGI: > 100 µM
[25]
  TGI: > 100 µM
[26]
  TGI: > 100 µM
[59]
  TGI: > 100 µM
[27]
  TGI: > 100 µM
[28]
  TGI: > 100 µM
[29]
  TGI: > 100 µM
[30]
  TGI: > 100 µM
[31]
  TGI: > 100 µM
[32]
  TGI: > 100 µM
[33]
  TGI: 77.6 µM
[34]
  TGI: > 100 µM
[35]
  TGI: > 100 µM
[36]
  TGI: 38.5 µM
[38]
  TGI: > 100 µM
[40]
  TGI: 47 µM
[41]
  TGI: > 100 µM
[42]
  TGI: 62.1 µM
[43]
  TGI: 77.6 µM
[44]
  TGI: > 100 µM
[45]
  TGI: > 100 µM
[46]
  TGI: > 100 µM
[47]
  TGI: > 100 µM
[48]
  TGI: > 100 µM
[50]
  TGI: > 100 µM
[51]
  TGI: 63.7 µM
[52]
  TGI: > 100 µM
[53]
  TGI: > 100 µM
[54]
  TGI: > 100 µM
